Where “and” joins values, the source holds several entries; their conditions need not be identical. Equal values may be shown once. Toxic doses and inconclusive results are not listed. Rule for the calls: active = survival T/C of 150% or more; inactive = T/C below 125% in these data.
Test system: P388 leukemia ip, CD2F1 mice, survival T/C
Test: NCI In Vivo Anticancer Drug Screen. Data for tumor model P388 Leukemia (intraperitoneal) in CD2F1 (CDF1) mice
Conditions: endpoint: median survival time, higher = longer survival
How it was run: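 Mice carrying the transplanted tumor received test compound or vehicle. Survival was recorded in each group, and the value is the treated-group measurement divided by that of the vehicle-treated control group.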

[1] = dose: 50.0 mg/kg/injection, schedule: Q01DX009 (ip), vehicle: saline with Tween-80
[2] = dose: 100.0 mg/kg/injection, schedule: Q01DX009 (ip), vehicle: saline with Tween-80
[3] = dose: 200.0 mg/kg/injection, schedule: Q01DX009 (ip), vehicle: saline with Tween-80
[4] = dose: 12.5 mg/kg/injection, schedule: Q04DX002 (ip), vehicle: saline with Tween-80
[5] = dose: 60.0 mg/kg/injection, schedule: Q01DX005 (ip), vehicle: saline
[6] = dose: 120.0 mg/kg/injection, schedule: Q01DX005 (ip), vehicle: saline
[7] = dose: 240.0 mg/kg/injection, schedule: Q01DX005 (ip), vehicle: saline
[8] = dose: 60.0 mg/kg/injection, schedule: Q01DX005 (ip), vehicle: saline with Tween-80
[9] = dose: 120.0 mg/kg/injection, schedule: Q01DX005 (ip), vehicle: saline with Tween-80
[10] = dose: 240.0 mg/kg/injection, schedule: Q01DX005 (ip), vehicle: saline with Tween-80
[11] = dose: 50.0 mg/kg/injection, schedule: Q01DX005 (ip), vehicle: saline with Tween-80
[12] = dose: 100.0 mg/kg/injection, schedule: Q01DX005 (ip), vehicle: saline with Tween-80
[13] = dose: 200.0 mg/kg/injection, schedule: Q01DX005 (ip), vehicle: saline with Tween-80
[14] = dose: 100.0 mg/kg/injection, schedule: Q04DX003 (ip), vehicle: Klucel (hydroxypropylcellulose) (HPC)

Measured: T/C

COc1cc(C=NCc2ccccc2)cc(OC)c1O
inactive: dose: 50.0 mg/kg/injection, schedule: Q04DX003 (ip), vehicle: saline with Tween-80 103 % of control | dose: 200.0 mg/kg/injection, schedule: Q04DX003 (ip), vehicle: saline with Tween-80 97 % of control | dose: 400.0 mg/kg/injection, schedule: Q04DX003 (ip), vehicle: saline with Tween-80 97 % of control

CC1(C)NCCc2c1[nH]c1ccccc21
inactive: dose: 50.0 mg/kg/injection, schedule: Q04DX002 (ip), vehicle: suspension in saline 100 % of control | dose: 100.0 mg/kg/injection, schedule: Q04DX002 (ip), vehicle: suspension in saline 100 % of control | dose: 200.0 mg/kg/injection, schedule: Q04DX002 (ip), vehicle: suspension in saline 100 % of control

CCOP(=O)(Cc1cc(=O)oc2cc(OC)ccc12)OCC
inactive: dose: 100.0 mg/kg/injection, schedule: Q01DX001 (ip), vehicle: saline 101 % of control | dose: 200.0 mg/kg/injection, schedule: Q01DX001 (ip), vehicle: saline 100 % of control

C=CCc1cc(/C(CC)=C(/CC)c2ccc(OCCN(CC)CC)c(CC=C)c2)ccc1OCCN(CC)CC
inactive: dose: 50.0 mg/kg/injection, schedule: Q01DX005 (ip), vehicle: saline + Tween-80 + alcohol 99 % of control | dose: 100.0 mg/kg/injection, schedule: Q01DX005 (ip), vehicle: saline + Tween-80 + alcohol 93 % of control | dose: 200.0 mg/kg/injection, schedule: Q01DX005 (ip), vehicle: saline + Tween-80 + alcohol 104 % of control

COc1cc2c(=O)n3c4c(cccc4c2cc1OC)CCC3
inactive: dose: 25.0 mg/kg/injection, schedule: Q01DX009 (ip), vehicle: other 94 % of control | dose: 50.0 mg/kg/injection, schedule: Q01DX009 (ip), vehicle: other 90 % of control | dose: 100.0 mg/kg/injection, schedule: Q01DX009 (ip), vehicle: other 87 % of control | dose: 200.0 mg/kg/injection, schedule: Q01DX009 (ip), vehicle: other 92 % of control | dose: 400.0 mg/kg/injection, schedule: Q01DX009 (ip), vehicle: other 100 % of control

O=C(CC1C2CC3CC(C2)CC1C3)C1C2CC3CC(C2)CC1C3 (centres undefined)
inactive: [1] 97 % of control | [2] 97 % of control | [3] 97 % of control

O=C1c2cc([N+](=O)[O-])cc3cc([N+](=O)[O-])cc(c23)C(=O)N1CCNCCNCCNCCN1C(=O)c2cc([N+](=O)[O-])cc3cc([N+](=O)[O-])cc(c23)C1=O
inactive: [4] 112 % of control | dose: 25.0 mg/kg/injection, schedule: Q04DX002 (ip), vehicle: saline with Tween-80 121 % of control | dose: 50.0 mg/kg/injection, schedule: Q04DX002 (ip), vehicle: saline with Tween-80 122 % of control

COc1ccc(N=Cc2c(O)ccc3c2oc2cc(Cl)c(O)c(Cl)c23)cc1
inactive: dose: 60.0 mg/kg/injection, schedule: Q01DX005 (ip), vehicle: Klucel (hydroxypropylcellulose) (HPC) 96 % of control | dose: 120.0 mg/kg/injection, schedule: Q01DX005 (ip), vehicle: Klucel (hydroxypropylcellulose) (HPC) 93 % of control | dose: 240.0 mg/kg/injection, schedule: Q01DX005 (ip), vehicle: Klucel (hydroxypropylcellulose) (HPC) 91 % of control

C[Si](C)(CNCCN)O[Si](C)(C)CNCCN
inactive: [5] 99 % of control | [6] 90 % of control | [7] 101 % of control

OC12CC3C4CC(O1)C1C4CC3C12 (centres undefined)
inactive: [5] 102 % of control | [6] 109 % of control | [7] 109 % of control

CCC1CCC2COCN2C1 (centres undefined)
inactive: dose: 25.0 mg/kg/injection, schedule: Q01DX005 (ip), vehicle: saline 104 % of control | dose: 50.0 mg/kg/injection, schedule: Q01DX005 (ip), vehicle: saline 120 % of control | dose: 200.0 mg/kg/injection, schedule: Q01DX005 (ip), vehicle: saline 117 % of control and 118 % of control

O=C1CC2(C(=O)O1)C1C(=O)OC(=O)C1C1C=CC=NN12 (centres undefined)
inactive: dose: 25.0 mg/kg/injection, schedule: Q01DX009 (ip), vehicle: saline with Tween-80 90 % of control | [1] 93 % of control | [2] 93 % of control

NS(=O)(=O)c1ccc(N=Cc2cnc3ccccc3c2)cc1
inactive: dose: 2.5 mg/kg/injection, schedule: Q01DX009 (ip), vehicle: saline 100 % of control | dose: 5.0 mg/kg/injection, schedule: Q01DX009 (ip), vehicle: saline 97 % of control | dose: 10.0 mg/kg/injection, schedule: Q01DX009 (ip), vehicle: saline 100 % of control and 91 % of control | dose: 20.0 mg/kg/injection, schedule: Q01DX009 (ip), vehicle: saline 93 % of control

CONc1ccn(C2OC(CO)C(O)C2O)c(=O)n1 (centres undefined)
inactive: dose: 12.5 mg/kg/injection, schedule: Q01DX009 (ip), vehicle: saline 101 % of control and 104 % of control | dose: 25.0 mg/kg/injection, schedule: Q01DX009 (ip), vehicle: saline 112 % of control and 117 % of control | dose: 50.0 mg/kg/injection, schedule: Q01DX009 (ip), vehicle: saline 99 % of control and 113 % of control | dose: 100.0 mg/kg/injection, schedule: Q01DX009 (ip), vehicle: saline 112 % of control

c1ccc(C2=C(c3ccccc3)C3SC4CCCC3C4(N3CCOCC3)S2)cc1 (centres undefined)
inactive: dose: 100.0 mg/kg/injection, schedule: Q01DX001 (ip), vehicle: Klucel (hydroxypropylcellulose) (HPC) 95 % of control | dose: 200.0 mg/kg/injection, schedule: Q01DX001 (ip), vehicle: Klucel (hydroxypropylcellulose) (HPC) 99 % of control | dose: 400.0 mg/kg/injection, schedule: Q01DX001 (ip), vehicle: Klucel (hydroxypropylcellulose) (HPC) 93 % of control

COc1ccc(SS(=O)c2ccccc2)cc1 (centres undefined)
inactive: dose: 100.0 mg/kg/injection, schedule: Q04DX002 (ip), vehicle: saline with Tween-80 105 % of control | dose: 200.0 mg/kg/injection, schedule: Q04DX002 (ip), vehicle: saline with Tween-80 111 % of control | dose: 400.0 mg/kg/injection, schedule: Q04DX002 (ip), vehicle: saline with Tween-80 108 % of control

CCn1c(=O)c(C#N)c2n(CC)c3cc(C)c(C)cc3n2c1=O
inactive: [8] 90 % of control | [9] 86 % of control | [10] 86 % of control

CCOP(=O)(OCC)C(C#N)OC(C)(C)C (centres undefined)
inactive: [8] 109 % of control | [9] 93 % of control

CC(=O)Oc1c2ccccc2cc2ccccc12
inactive: [11] 112 % of control | [12] 96 % of control | [13] 89 % of control

Cc1nc2c(cc1[N+](=O)[O-])C(=O)NCCN2
inactive: dose: 25.0 mg/kg/injection, schedule: Q04DX003 (ip), vehicle: Klucel (hydroxypropylcellulose) (HPC) 91 % of control | dose: 50.0 mg/kg/injection, schedule: Q04DX003 (ip), vehicle: Klucel (hydroxypropylcellulose) (HPC) 100 % of control | [14] 96 % of control

CSC(=C(C#N)C#N)N1CC1
inactive: dose: 12.5 mg/kg/injection, schedule: Q01DX001 (ip), vehicle: DMSO 103 % of control | dose: 25.0 mg/kg/injection, schedule: Q01DX001 (ip), vehicle: DMSO 97 % of control | dose: 50.0 mg/kg/injection, schedule: Q01DX001 (ip), vehicle: DMSO 96 % of control

OC1(c2ccccc2)c2ccc(Br)cc2-c2cc(Br)ccc21
inactive: [2] 101 % of control | [3] 104 % of control | dose: 400.0 mg/kg/injection, schedule: Q01DX009 (ip), vehicle: saline with Tween-80 100 % of control

O=C(O)/C(Br)=C/c1ccccc1
inactive: [1] 87 % of control | [2] 91 % of control | [3] 87 % of control

COC(=O)C1C(C)C2CCCCC2CC1(C)O (centres undefined)
inactive: [14] 103 % of control | dose: 200.0 mg/kg/injection, schedule: Q04DX003 (ip), vehicle: Klucel (hydroxypropylcellulose) (HPC) 112 % of control | dose: 400.0 mg/kg/injection, schedule: Q04DX003 (ip), vehicle: Klucel (hydroxypropylcellulose) (HPC) 100 % of control

CC(C)C(NC(=O)C1CSC(C)(C)N1C=O)C(=O)O (centres undefined)
inactive: [11] 102 % of control | [12] 100 % of control | [13] 102 % of control

FC(F)(F)c1ccc2cc(C3(C4CCNCC4)CCCO3)c3ccc(C(F)(F)F)cc3c2c1 (centres undefined)
inactive: dose: 12.5 mg/kg/injection, schedule: Q01DX009 (ip), vehicle: distilled water + Tween-80 104 % of control | dose: 25.0 mg/kg/injection, schedule: Q01DX009 (ip), vehicle: distilled water + Tween-80 95 % of control

O=C(O)C(=O)O.[NH-]C1CCCC1[NH-].[Pt+2] (centres undefined)
active: [4] 166 % of control | dose: 12.5 mg/kg/injection, schedule: Q04DX002 (ip), vehicle: saline 176 % of control

CN1CCOP(=O)(Oc2ccccc2)N1 (centres undefined)
inactive: [8] 103 % of control | [9] 99 % of control | [10] 100 % of control
